We go through 17 compounds from patent US8846643B2, “Phosphonates with reduced toxicity for treatment of viral infections” (The Regents of the University of California, priority 2010, dated 2014).

One may read the EC50 as the midpoint of the concentration-response curve. As usually defined, the CC50 is the concentration at which the toxic effect on the cells reaches its halfway point. A higher CC50 goes with better tolerance by the cells.

The structures appear in SMILES notation. Like-named read-outs stand apart in the source and are kept apart here.

Series [1] relates to HCV genotype 1b replicon (BM4-5). Description: anti-HCV activity in genotype 1b replicon (BM4-5). The following applies: for EC50: Hepatitis C virus; for Selectivity Index BM4-5 (1b): genotype 1b replicon. The format is cell-based, hepatitis C virus. (In general: Replicon systems follow genome replication, usually without infectious particles.)
Series [2] relates to HCV genotype 2a replicon (JFH-1). Description: anti-HCV activity in genotype 2a replicon (JFH-1). The format is cell-based, hepatitis C virus. The following applies: for EC50: Hepatitis C virus, read-out: EC50 (μM) JFH-1 (2a); for Selectivity Index JFH-1 (2a): genotype 2a replicon.
In series [3] the test system is HIV-1. Description: microbe, parasite or virus in culture.
For series [4], the system named is MT-2 cells. As to the kind of experiment: cytotoxicity in MT-2 cells. The following applies: MT-2 cells.
Series [5] deals with Huh 7.5 cells. As to the kind of experiment: cytotoxicity (CC50) in HCV replicon cells / Huh 7.5 liver cells. As to conditions: cytotoxicity in replicon cells.
In series [6] the test system is HIV-1. The following applies: for anti-HIV activity (in words): HIV-1 infected MT-2 cells; for Selectivity Index: MT-2 cells, HIV-1.
The target in series [7] is HIV-1 reverse transcriptase (Human immunodeficiency virus type 1 group M subtype B, UniProt P04585). Description: HIV reverse transcriptase assay with primer-template pairs. The following applies: HIV-1 reverse transcriptase 50 nM, 37° C., 5 min. The format is biochemical. The procedure:
(S)-MPMPA diphosphate was prepared as described in Example 56. Radiolabeled [γ-^32P]ATP and cordycepin triphosphate ([α-^32P]3′-deoxyATP) was purchased from PerkinElmer, and unlabeled deoxynucleoside triphosphates (dNTPs) were from Fermentas. RNA oligonucleotides were purchased from Sigma.
Oligonucleotide primer-template pairs were used as substrates for reverse transcriptase assays. Reverse transcriptase assays utilized RNA oligonucleotide templates. The primers were first end-labeled by using [γ-^32P]ATP and T4 polynucleotide kinase prior to annealing to the template strand. Various combinations of dNTPs and (S)-MPMPApp were added. […] After incubation of controls and (S)-MPMPA at 37° C. for 5 min, reaction mixtures were stopped by the addition of gel loading buffer [80% (v/v) formamide, 10 mM EDTA (pH 8.0), 1 mg/ml xylene cyanol FF, 1 mg/ml bromophenol blue]. Reaction products were resolved on 10% polyacrylamide gels and analyzed by phosphorimager analysis as previously described (Magee et al., 2005) using a Typhoon 9400 phosphorimager.).

Series [8] is described as follows: cytotoxicity in human PBMCs.
Series [9] deals with HIV-1NL43. Description: HIV-1 replication in human peripheral blood mononuclear cells. The format is cell-based. As to conditions: for activity against HIV-1 in human PBMCs (in words): HIV-1 infected human PBMCs.
Series [10] can be described thus: antiviral activity and cytotoxicity of unmodified MPMPA (system not stated).
The mark [11] stands for this setting: BM4-5, read-out: EC50 (μM) BM4-5(1b).
[12] abbreviates: Human immunodeficiency virus 1, MT2, MT-2 cells infected with HIV-1.
[13] abbreviates: Human immunodeficiency virus 1, MT2.
Setting [14] is: BM4-5, read-out: EC50 values, range.

As for `CCCCCCCCCCCCCCCCOCCCOP(=O)(O)COC(COCC)Cn1cnc2c(N)ncnc21` (racemic) [Cmpd 18, hexadecyloxypropyl 9-(R,S)-[3-ethoxy-2-(phosphonomethoxy)propyl]adenine], the EC50 in series [1] (setting [11]) is 7.59 µM; in [2], 8.87 µM; in series [3] (setting [12]), more than 10 µM. In addition, the figures for the CC50 in series [4] and in [5] were 23.6 ± 7.1 µM and 99 ± 0.5 µM, respectively. Also, the “anti-HIV activity (in words)” value in series [6] is on record as “loss of antiviral activity”.

Turning to `CCCCCCCCCCCCCCCCOCCCOP(=O)(O)COC(COC(C)C)Cn1cnc2c(N)ncnc21` (racemic) [Cmpd 19, hexadecyloxypropyl 9-(R,S)-[3-isopropoxy-2-(phosphonomethoxy)propyl]adenine], the EC50 was 51.2 ± 38.2 µM in series [1] (setting [11]), 98.8 ± 20.8 µM in [2] and more than 10 µM in [3] (setting [12]). The values for the CC50 in series [4] and in series [5] were 30.3 ± 12.5 µM and 100 ± 20.8 µM, respectively. In addition, the “anti-HIV activity (in words)” value in [6] is on record as “loss of antiviral activity”.

With `CCCCCCCCCCCCCCCCOCCCOP(=O)(O)COC(COCC)Cn1cnc2c(N)nc(N)nc21` (racemic) [Cmpd 26, Hexadecyloxypropyl (R,S)-9-[3-ethoxy-2-phosphonomethoxy)propyl-2,6-diaminopurine], the figures for the EC50 in series [1] (setting [11]), in series [2] and in series [3] (setting [12]) were 18.2 ± 7.09 µM, 19.5 ± 1.48 µM and more than 10 µM, respectively. In series [1], the “Selectivity Index BM4-5 (1b)” value is recorded as more than 8.2. Moreover, the “Selectivity Index JFH-1 (2a)” value in series [2] was more than 7.69. The CC50 in [4] is 30.7 ± 11.7 µM; in [5], more than 150 µM. In addition, the “anti-HIV activity (in words)” value in series [6] is “large loss of anti-HIV activity”.

For `CCCCCCCCCCCCCCCCOCCCOP(=O)(O)COC(COCC)Cn1cnc2c(=O)[nH]c(N)nc21` (racemic) [Cmpd 37, Hexadecyloxypropyl (R,S)-9-[3-ethoxy-2-phosphonomethoxy)propyl]guanine], the EC50 in series [1] (setting [11]) was 25.5 ± 10.4 µM; in series [2], 13.2 ± 3.45 µM; in series [3] (setting [12]), more than 10 µM. Besides, in series [1], the “Selectivity Index BM4-5 (1b)” value was more than 5.88. In addition, in [2], the “Selectivity Index JFH-1 (2a)” value is on record as more than 11.4. Further, the half-maximal cytotoxic concentration (CC50) in series [4] was 14.9 ± 6.7 µM; in [5], more than 150 µM. In series [6], the “anti-HIV activity (in words)” value is given as “large loss of anti-HIV activity”.

Consider `COC[C@H](Cn1cnc2c(N)ncnc21)OCP(=O)(O)OP(=O)(O)OP(=O)(O)O` [(S)-MPMPA diphosphate], for which, in [7], the “inhibition of HIV reverse transcriptase activity (in words)” value is listed as “inhibited HIV reverse transcriptase activity by chain termination”.

Regarding `CCCCCCCCCCCCCCCCCCOCCOP(=O)(O)CO[C@@H](COC)Cn1cnc2c(N)ncnc21` [Cmpd 16, Octadecyloxyethyl (R)-9-[(3-methoxy-2-phosphonomethoxy)propyl]adenine], the values for the EC50 in series [1] (setting [11]), in [2] and in series [3] (setting [12]) were 4.65 µM, 5.33 µM and 4.8 ± 3 µM, respectively. The compound further registered a CC50 in series [5] of more than 150 µM. Besides, the “anti-HIV activity (in words)” value in series [6] was “considerably less active and selective”.

Turning to `CCCCCCCCCCCCCCCCOCCCOP(=O)(O)CO[C@H](COC)Cn1cnc2c(N)ncnc21` [Cmpd 17], the values for the CC50 in series [8], in series [4] and in [5] were more than 10 µM, 32 ± 11 µM and more than 150 µM, respectively. The 50% effective concentration (EC50) in [1] (setting [11]) is 2.36 µM; in [2], 4.64 µM; in series [3] (setting [13]), 0.2 ± 0.26 µM; in [9] (Human immunodeficiency virus 1, PBMC, HIV-1NL43 in human PBMCs), 0.2 µM. Also, the “activity against HIV-1 in human PBMCs (in words)” value in [9] is “active and selective”. Also, in series [6], the “anti-HIV activity (in words)” value was “less active”.

With `CCCCCCCCCCCCCCCCCCOCCOP(=O)(O)CO[C@H](COC)Cn1cnc2c(N)nc(N)nc21` [Cmpd 23, Octadecyloxyethyl (S)-9-[(3-methoxy-2-phosphonomethoxy)propyl]2,6-diaminopurine], the EC50 in series [1] (setting [11]) amounted to 20.1 ± 1.98 µM; in series [2], 21.4 ± 1.3 µM; in series [3] (setting [12]) it was 0.23 ± 0.15 µM. Also, the CC50 in series [4] worked out at 18 ± 5.3 µM; in series [5], 99 ± 13.4 µM.

For `CCCCCCCCCCCCCCCCCCOCCOP(=O)(O)CO[C@@H](COC)Cn1cnc2c(N)nc(N)nc21` [Cmpd 24, Octadecyloxyethyl (R)-9-[(3-methoxy-2-phosphonomethoxy)propyl]2,6-diaminopurine], the EC50 in series [1] (setting [11]) stood at 25.6 ± 4.23 µM; in series [2], 25.8 ± 6.1 µM. Besides, the CC50 in series [4] is 19.7 ± 9.5 µM; in series [5] it was more than 150 µM.

As to `CCCCCCCCCCCCCCCCOCCCOP(=O)(O)CO[C@H](COC)Cn1cnc2c(N)nc(N)nc21` [Cmpd 25], the EC50 was 21.3 ± 3.1 µM in series [1] (setting [11]), 23.6 ± 2.7 µM in series [2] and 4.6 ± 1.8 µM in [3] (setting [12]). Besides, the results for the CC50 in [4] and in [5] were 22.7 ± 6.8 µM and 91.5 ± 17.8 µM, respectively. The “anti-HIV activity (in words)” value in series [6] is recorded as “less active”.

In the case of `CCCCCCCCCCCCCCCCCCOCCOP(=O)(O)CO[C@H](COC)Cn1cnc2c(=O)[nH]c(N)nc21` [Cmpd 34, Octadecyloxyethyl (S)-9-[(3-methoxy-2-phosphonomethoxy)propyl]guanine], the EC50 turned out to be 8.26 µM in series [1] (setting [11]), 10.7 µM in [2] and 0.2 µM in series [3] (setting [13]). Also, the “Selectivity Index BM4-5 (1b)” value in series [1] was more than 18.2. The “Selectivity Index JFH-1 (2a)” value in series [2] is on record as more than 14.0. In series [4], this compound had a CC50 of 25 ± 13 µM. Also, the “Selectivity Index” value in series [6] is 125.

Consider `CCCCCCCCCCCCCCCCCCOCCOP(=O)(O)CO[C@@H](COC)Cn1cnc2c(=O)[nH]c(N)nc21` [Cmpd 35, Octadecyloxyethyl (R)-9-[(3-methoxy-2-phosphonomethoxy)propyl]guanine], for which the concentration giving a half-maximal response (EC50) was 12.6 µM in [1] (setting [11]), 12.4 µM in series [2] and less than 1e-05 µM in series [3] (setting [13]). Also, in [1], the “Selectivity Index BM4-5 (1b)” value was more than 11.9. The “Selectivity Index JFH-1 (2a)” value in [2] is on record as more than 12.1. Further, the CC50 is 44 µM in series [4] and more than 150 µM in series [5].

`CCCCCCCCCCCCCCCCOCCCOP(=O)(O)CO[C@H](COC)Cn1cnc2c(=O)[nH]c(N)nc21` [Cmpd 36]: the CC50 in series [8] was more than 100 µM; in series [4] it was 29.3 ± 3.1 µM; in series [5], more than 150 µM. Moreover, the EC50 turned out to be 22 ± 4.97 µM in series [1] (setting [11]), 24.8 ± 7 µM in series [2] and 2.03 ± 0.95 µM in [3] (setting [13]). The “activity against HIV-1 in human PBMCs (in words)” value in [9] (listed as HDP-(S)-MPMPG) was “active and selective”; in series [9] (listed as hexadecyloxypropyl-(S)-MPMPG), “submicromolar activity”. Also, in [6], the “anti-HIV activity (in words)” value was “less active”.

As to `CCCCCCCCCCCCCCCCCCOCCOP(=O)(O)CO[C@H](COC)Cn1ccc(N)nc1=O` [Cmpd 40, Octadecyloxyethyl (S)-1-[(3-methoxy-2-phosphonomethoxy)propyl]cytosine], the “anti-HCV activity (in words)” value in series [1] (HCV replication in vitro) is “inactive”. The EC50 was more than 150 µM in series [1] (setting [11]), more than 150 µM in [2] and 12.7 µM in [3] (setting [13]). In addition, the “activity against HIV-1 in human PBMCs (in words)” value in series [9] is on record as “antiviral activity”. For the same compound, the CC50 in series [4] was 60.7 ± 16 µM; in [5], more than 150 µM. Further, the “Selectivity Index” value in [6] is 4.8.

For `CCCCCCCCCCCCCCCCOCCCOP(=O)(O)CO[C@H](COC)Cn1cnc2c(OC)ncnc21` [Cmpd 43, Hexadecyloxypropyl (S)-9-[(3-methoxy-2-phosphonomethoxy)propyl]-6-methoxypurine], the EC50 in [1] (setting [11]) is 8.9 ± 1.22 µM; in series [1] (setting [14]), 8.9 to 12.5 µM; in series [2] it was 12.5 ± 3.36 µM; in series [3] (setting [13]), more than 10 µM. The CC50 in [4] is 22 ± 3.5 µM; in series [5], more than 150 µM.

Take `CCCCCCCCCCCCCCCCOCCCOP(=O)(O)CO[C@H](COC)Cn1cnc2c(OC)nc(N)nc21` [Cmpd 44, Hexadecyloxypropyl (S)-9-[(3-methoxy-2-phosphonomethoxy)propyl]-6-O-methylguanine]: the EC50 is 18.1 ± 0.27 µM in [1] (setting [11]), 18 to 26 µM in series [1] (setting [14]), 17.4 ± 0.3 µM in [2] and more than 10 µM in series [3] (setting [13]). Further, the CC50 in [4] was 34.3 ± 7.6 µM; in [5], more than 150 µM.

Take `COC[C@H](Cn1cnc2c(N)ncnc21)OCP(=O)(O)O` [MPMPA, 9-(S)-[3-methoxy-2-(phosphonomethoxy)propyl]adenine]: the midpoint of cytotoxicity in series [10] (cells not given), the CC50, lay at 40 µM. For the same compound, a half-maximal response in [10] (virus and cells not stated) (EC50) required 20 µM.
